From ChEMBL document CHEMBL4033756, “Identification of Better Pharmacokinetic Benzothiazinone Derivatives as New Antitubercular Agents” (ACS Med Chem Lett, 2017)
Converted amounts (≈) assume the structure as drawn.

Assays:
[1] = tested on: Mycobacterium tuberculosis; test: Antitubercular activity against Mycobacterium tuberculosis H37Rv after 7 days by microplate alamar blue assay; format: functional; details: 168 h
[2] = Aqueous solubility of the compound at pH 2 after 12 hrs by HPLC-UV method; format: physicochemical
[3] = Cytotoxicity against African green monkey Vero cells assessed as cell viability after 72 hrs by MTT assay; format: cell-based; details: chlorocebus sabaeus
[4] = Elimination half life in ICR mouse at 50 mg/kg, po by HPLC analysis; format: ADME, organism-based; details: in vivo, read-out: beta t1/2 (converted)
[5] = Tmax in ICR mouse at 50 mg/kg, po by HPLC analysis; format: ADME, organism-based; details: in vivo
[6] = Cmax in ICR mouse at 50 mg/kg, po by HPLC analysis; format: ADME, organism-based; design: dose 50 mg/kg, route oral; details: in vivo
[7] = MRT in ICR mouse at 50 mg/kg, po by HPLC analysis; format: ADME, organism-based; details: in vivo
[8] = AUC (0 to infinity) in ICR mouse at 50 mg/kg, po by HPLC analysis; format: ADME, organism-based; design: dose 50 mg/kg, time infinity, route oral; details: in vivo
Mus musculus = test: Acute toxicity in Kunming mouse assessed as mortality at 500 mg/kg, po measured during first 4 hours and then each hour for next 24 hrs and at 8 hourly intervals for following 7 days post dose; format: organism-based; details: in vivo

## COc1ccc(C(=O)N2CCC3(CC2)CCN(c2nc(=O)c4cc(C(F)(F)F)cc([N+](=O)[O-])c4s2)CC3)cc1
[1]
  MIC90: 26.6 µM (≈ 15 µg/mL)

## CO[C@H]1/C=C/O[C@@]2(C)Oc3c(C)c(O)c4c(O)c(c(/C=N/N5CCN(C)CC5)c(O)c4c3C2=O)NC(=O)/C(C)=C\C=C\[C@H](C)[C@H](O)[C@@H](C)[C@@H](O)[C@@H](C)[C@H](OC(C)=O)[C@@H]1C [RIFAMPIN]
[1]
  MIC90: 0.092 µM (≈ 0.0757 µg/mL)

## O=c1nc(N2CCC3(CCN(Cc4ccc(F)cc4)CC3)CC2)sc2c([N+](=O)[O-])cc(C(F)(F)F)cc12
[1]
  MIC90: 0.21 µM (≈ 0.113 µg/mL)

## O=c1nc(N2CCC3(CCN(Cc4ccccc4)C3)CC2)sc2c([N+](=O)[O-])cc(C(F)(F)F)cc12
[2]
  solubility at 12 h: 1.56 µg/mL (≈ 3.09 µM)
[3]
  CC50 at 72 h: 289 µM
[1]
  MIC90: 0.06 µM (≈ 0.0303 µg/mL)

## CC(C)(C)OC(=O)N1CCC2(CC1)CCN(c1nc(=O)c3cc(C(F)(F)F)cc([N+](=O)[O-])c3s1)CC2
[1]
  MIC90: 0.219 µM (≈ 0.116 µg/mL)

## NNC(=O)c1ccncc1 [ISONIAZID]
[1]
  MIC90: 0.284 µM (≈ 0.0389 µg/mL)

## O=c1nc(N2CCC3(CCN(Cc4ccc(F)cc4)C3)CC2)sc2c([N+](=O)[O-])cc(C(F)(F)F)cc12
[4]
  half-life: 3.11 h
[5]
  Tmax: 1.08 h
[6]
  Cmax: 1.23 µg/mL
[7]
  MRT: 4 h
[2]
  solubility at 12 h: 1.12 µg/mL (≈ 2.14 µM)
[3]
  CC50 at 72 h: 811 µM
[1]
  MIC90: < 0.035 µM
[8]
  AUC(0-inf): 6.02 µg·h/mL

## O=c1nc(N2CCC3(CCN(Cc4ccc(C(F)(F)F)cc4)CC3)CC2)sc2c([N+](=O)[O-])cc(C(F)(F)F)cc12
Mus musculus
  Activity: Non-Toxic
[4]
  half-life: 3.59 h
[5]
  Tmax: 1.33 h
[6]
  Cmax: 2.7 µg/mL
[7]
  MRT: 6.07 h
[2]
  solubility at 12 h: 1.24 µg/mL (≈ 2.11 µM)
[3]
  CC50 at 72 h: 145 µM
[1]
  MIC90: < 0.035 µM
[8]
  AUC(0-inf): 28.7 µg·h/mL

## CCOC(=O)CN1CCC2(CCN(c3nc(=O)c4cc(C(F)(F)F)cc([N+](=O)[O-])c4s3)CC2)C1
Mus musculus
  Activity: Non-Toxic
[4]
  half-life: 3.46 h
[5]
  Tmax: 0.67 h
[6]
  Cmax: 0.0176 µg/mL
[7]
  MRT: 5.2 h
[2]
  solubility at 12 h: 2.04 µg/mL (≈ 4.08 µM)
[3]
  CC50 at 72 h: 266 µM
[1]
  MIC90: 0.062 µM (≈ 0.031 µg/mL)
[8]
  AUC(0-inf): 0.0418 µg·h/mL

## O=C(CN1CCC2(CC1)CCN(c1nc(=O)c3cc(C(F)(F)F)cc([N+](=O)[O-])c3s1)CC2)NCc1ccccc1
[1]
  MIC90: 6.42 µM (≈ 3.69 µg/mL)

## O=c1nc(N2CCC3(CCN(CC4CCCCC4)CC3)CC2)sc2c([N+](=O)[O-])cc(C(F)(F)F)cc12
[1]
  MIC90: 0.944 µM (≈ 0.495 µg/mL)

## COc1ccccc1CN1CCC2(CCN(c3nc(=O)c4cc(C(F)(F)F)cc([N+](=O)[O-])c4s3)CC2)C1
[1]
  MIC90: 1.68 µM (≈ 0.896 µg/mL)

## O=c1nc(N2CCC3(CCN(Cc4ccc(Br)cc4)CC3)CC2)sc2c([N+](=O)[O-])cc(C(F)(F)F)cc12
Mus musculus
  Activity: Non-Toxic
[4]
  half-life: 10.7 h
[5]
  Tmax: 1 h
[6]
  Cmax: 1.68 µg/mL
[7]
  MRT: 15.9 h
[2]
  solubility at 12 h: 1.17 µg/mL (≈ 1.96 µM)
[3]
  CC50 at 72 h: 1680 µM
[1]
  MIC90: 0.057 µM (≈ 0.0341 µg/mL)
[8]
  AUC(0-inf): 24.6 µg·h/mL

## O=c1nc(N2CCC3(CCN(Cc4cc(F)cc(F)c4)CC3)CC2)sc2c([N+](=O)[O-])cc(C(F)(F)F)cc12
Mus musculus
  Activity: Non-Toxic
[4]
  half-life: 4.68 h
[5]
  Tmax: 0.5 h
[6]
  Cmax: 0.426 µg/mL
[7]
  MRT: 5.8 h
[2]
  solubility at 12 h: 0.67 µg/mL (≈ 1.21 µM)
[3]
  CC50 at 72 h: 1170 µM
[1]
  MIC90: < 0.035 µM
[8]
  AUC(0-inf): 2.6 µg·h/mL

## COc1cc(CN2CCC3(CC2)CCN(c2nc(=O)c4cc(C(F)(F)F)cc([N+](=O)[O-])c4s2)CC3)cc(OC)c1
[1]
  MIC90: 0.825 µM (≈ 0.477 µg/mL)

## O=c1nc(N2CCC3(CC2)CN(CC2CCCCC2)C3)sc2c([N+](=O)[O-])cc(C(F)(F)F)cc12
[1]
  MIC90: 0.468 µM (≈ 0.232 µg/mL)

## O=c1nc(N2CCC3(CCN(Cc4cccc(F)c4)CC3)CC2)sc2c([N+](=O)[O-])cc(C(F)(F)F)cc12
Mus musculus
  Activity: Non-Toxic
[4]
  half-life: 3.53 h
[5]
  Tmax: 0.67 h
[6]
  Cmax: 0.901 µg/mL
[7]
  MRT: 4.83 h
[2]
  solubility at 12 h: 1.13 µg/mL (≈ 2.11 µM)
[3]
  CC50 at 72 h: 1400 µM
[1]
  MIC90: 0.054 µM (≈ 0.029 µg/mL)
[8]
  AUC(0-inf): 4.87 µg·h/mL

## O=c1nc(N2CCC3(CCN(CC4CCCCC4)C3)CC2)sc2c([N+](=O)[O-])cc(C(F)(F)F)cc12
[1]
  MIC90: 0.22 µM (≈ 0.112 µg/mL)

## CCN(CC)C(=O)CN1CCC2(CC1)CCN(c1nc(=O)c3cc(C(F)(F)F)cc([N+](=O)[O-])c3s1)CC2
[1]
  MIC90: 6.32 µM (≈ 3.42 µg/mL)

## COc1ccc(CN2CC3(CCN(c4nc(=O)c5cc(C(F)(F)F)cc([N+](=O)[O-])c5s4)CC3)C2)cc1
[2]
  solubility at 12 h: 1.2 µg/mL (≈ 2.31 µM)
[3]
  CC50 at 72 h: 78.9 µM
[1]
  MIC90: 0.113 µM (≈ 0.0588 µg/mL)

## O=c1nc(N2CCN(CC3CCCCC3)CC2)sc2c([N+](=O)[O-])cc(C(F)(F)F)cc12 [MACOZINONE]
[4]
  half-life: 2.87 h
[5]
  Tmax: 0.83 h
[6]
  Cmax: 1.3 µg/mL
[7]
  MRT: 3.73 h
[2]
  solubility at 12 h: 0.9 µg/mL (≈ 1.97 µM)
[3]
  CC50 at 72 h: 1400 µM
[1]
  MIC90: < 0.035 µM
[8]
  AUC(0-inf): 5.48 µg·h/mL

## O=c1nc(N2CCC3(CCN(Cc4ccccc4)CC3)CC2)sc2c([N+](=O)[O-])cc(C(F)(F)F)cc12
[1]
  MIC90: 0.847 µM (≈ 0.439 µg/mL)

## COc1ccc(CN2CCC3(CC2)CCN(c2nc(=O)c4cc(C(F)(F)F)cc([N+](=O)[O-])c4s2)CC3)cc1
[1]
  MIC90: 1 µM (≈ 0.551 µg/mL)

## CN1CCC2(CC1)CCN(c1nc(=O)c3cc(C(F)(F)F)cc([N+](=O)[O-])c3s1)CC2
[1]
  MIC90: 33.5 µM (≈ 14.8 µg/mL)

## CC(C)(C)OC(=O)N1CC2(CCN(c3nc(=O)c4cc(C(F)(F)F)cc([N+](=O)[O-])c4s3)CC2)C1
[1]
  MIC90: 1.92 µM (≈ 0.963 µg/mL)

## O=C(CN1CCC2(CC1)CCN(c1nc(=O)c3cc(C(F)(F)F)cc([N+](=O)[O-])c3s1)CC2)OCc1ccccc1
[1]
  MIC90: 0.352 µM (≈ 0.203 µg/mL)

## COc1ccc(CN2CCC3(CCN(c4nc(=O)c5cc(C(F)(F)F)cc([N+](=O)[O-])c5s4)CC3)C2)cc1
[2]
  solubility at 12 h: 1.4 µg/mL (≈ 2.62 µM)
[3]
  CC50 at 72 h: 86.2 µM
[1]
  MIC90: 0.112 µM (≈ 0.0599 µg/mL)

## CCOC(=O)CN1CCC2(CC1)CCN(c1nc(=O)c3cc(C(F)(F)F)cc([N+](=O)[O-])c3s1)CC2
[1]
  MIC90: 0.542 µM (≈ 0.279 µg/mL)

## CC(C)(C)OC(=O)N1CCC2(CCN(c3nc(=O)c4cc(C(F)(F)F)cc([N+](=O)[O-])c4s3)CC2)C1
[1]
  MIC90: 3.26 µM (≈ 1.68 µg/mL)

## CCOC(=O)CN1CC2(CCN(c3nc(=O)c4cc(C(F)(F)F)cc([N+](=O)[O-])c4s3)CC2)C1
[1]
  MIC90: 0.444 µM (≈ 0.216 µg/mL)
